This is an account of results in the METLIN SMRT retention time set (Domingo-Almenara et al. 2019).

The nature of the series: gradient 5% acetonitrile 3 min, to 50% in 2 min, to 85% in 15 min, held 3 min, 100 µL/min. The conditions noted are these: column: Zorbax Extend-C18 2.1 x 50 mm; eluents: water / acetonitrile, 0.1% formic acid. An outline of the steps:
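Pure standards were analyzed in mixtures of ~100 molecules using HPLC coupled to a quadrupole time-of-flight mass spectrometer, in both positive and negative ionization mode. Separation used a Zorbax Extend-C18 column (2.1 × 50 mm, 1.8 μm) at 100 μL/min, with water and acetonitrile each containing 0.1% formic acid. Dead and dwell volumes were 40 μL and 900 μL, and data were collected over 3 months. Retention time was read from computationally picked adduct peaks, each inspected manually.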
With `CC(=O)N1c2ccc(S(=O)(=O)N3CCCCC3)cc2CC1C(=O)NCc1ccc(N(C)C)cc1` (configuration not stated), the RP-LC retention time was found to be 879 s.

`CC(C)(C)NC(=O)NCCC1CCN(S(=O)(=O)c2ccccc2)CC1`: the RP-LC retention time came to 822 s.

`COc1ccccc1-c1ccc(N2CCN(C(=O)c3ccccc3Cl)CC2)nn1` showed an RP-LC retention time of 626 s.

`CCOc1ccc(CC(=O)NC2CCN(c3cc(-c4cccs4)[nH]n3)C2)cc1` (configuration not stated) yielded an RP-LC retention time of 733 s.

`COc1cccc(-n2c(=O)c3sccc3n(Cc3nc(-c4ccccc4Cl)no3)c2=O)c1`: the RP-LC retention time was 969 s.

In turn, `O=C(NCc1ccc2c(c1)OCO2)C1=C2CCCN2c2ccccc2S1(=O)=O` had an RP-LC retention time of 805 s.

On to `CCc1nc2c(c(=O)n1CC(=O)NCc1ccccc1)CN(Cc1ccccc1)CC2`, for which the RP-LC retention time turned out to be 629 s.

The compound `Cc1oncc1CN1CCN(C(=O)c2c(F)cccc2Cl)CC1` showed an RP-LC retention time of 575 s.

The compound `c1coc(-c2nnc(-c3cc4ccccc4o3)o2)c1` displayed an RP-LC retention time of 925 s.

`CC1CCN(S(=O)(=O)c2ccc3nc(N4CCN(c5ccccc5F)CC4)ccc3c2)CC1` gave an RP-LC retention time of 1260 s.

`Nc1ccc(-c2nc3ccc(-c4nc5ccc(N)cc5[nH]4)cc3[nH]2)cc1` returned an RP-LC retention time of 568 s.

As to `COC(=O)c1ccc2c(=O)n(Cc3cccc(OC)c3)c(N3CCN(c4ccccn4)CC3)nc2c1`, the RP-LC retention time was determined as 741 s.

For `CCOC(=O)c1noc2ncnc(NCC3CCN(Cc4ccccc4Cl)CC3)c12`, the RP-LC retention time worked out at 603 s.

Take `O=C(c1cc(-c2ccncc2)n[nH]1)N1CCC(C(=O)N2CCN(c3ncccn3)CC2)CC1`: the RP-LC retention time was determined as 575 s.

`COc1cccc(CN2N=C(C(=O)N3CCOCC3)S(=O)(=O)c3ccc(Cl)cc32)c1` registered an RP-LC retention time of 887 s.

The compound `CCN(CC)C(=O)Cn1c(=O)c2cnc(-c3ccc(C)cc3)nc2n(C)c1=O` displayed an RP-LC retention time of 985 s.

For the compound `CCCNC(=O)c1cn(-c2cc(-c3nc(C(C)(C)C)no3)ccn2)cn1`, the RP-LC retention time worked out at 934 s.

Regarding `COc1ccc(OC)c(CNc2c(-c3nc(C(C)C)no3)cnc3nc(C)ccc23)c1`, the RP-LC retention time is 784 s.

As to `CCOC(=O)N1CCC(NC(=O)Cc2csc(Nc3cccc(Cl)c3)n2)CC1`, the RP-LC retention time is 771 s.

On to `Cc1ccc(N2CCC(NC(=O)C3CCC3)C2=O)cc1C` (configuration not stated), for which the RP-LC retention time turned out to be 762 s.

As for `O=C(NCC1CCN(C(=O)c2ccccc2F)CC1)c1ccccn1`, the RP-LC retention time stood at 667 s.

Consider `Cc1ccc(Nc2nc(C)cc(N3CCN(S(=O)(=O)c4cccc(C(F)(F)F)c4)CC3)n2)cc1`, for which the RP-LC retention time amounted to 886 s.

Compound `Cc1ccc(NC(=O)N2CCc3nc[nH]c3C2)c(C)c1` registered an RP-LC retention time of 578 s.

`Cc1nn(-c2ccccc2)c(C)c1S(=O)(=O)N1CCC(C(=O)Nc2ccc(Cl)cc2)CC1` registered an RP-LC retention time of 726 s.

As for `CC(C)(C)c1ccc(O)c(NC(=O)c2cn(-c3ccc(S(=O)(=O)N4CCCC4)cc3)cn2)c1`, the RP-LC retention time is 1020 s.

`Cc1ccc(CNC(=O)N2c3ccccc3CC2c2nc(C3CC3)no2)cc1` (configuration not stated) gave an RP-LC retention time of 972 s.

In turn, `CCCn1cc(S(=O)(=O)Nc2cc(Cl)ccc2OC)c2cccnc21` registered an RP-LC retention time of 995 s.

In turn, `COc1ccc(OC)c(S(=O)(=O)N2[C@H]3CC[C@@H]2c2cnc(C)nc2C3)c1` displayed an RP-LC retention time of 703 s.

`Cc1ccc(S(=O)(=O)Nc2ccc(-c3cn4cccc(C)c4n3)cc2)c(C)c1` yielded an RP-LC retention time of 688 s.

For the compound `COc1ccc(OC)c(N2C(=O)c3cccnc3C2Nc2ccc(C(C)=O)cc2)c1` (configuration not stated), the RP-LC retention time was 698 s.

`Cc1noc2ncnc(N3CCCC(C(=O)N4CCCc5ccccc54)C3)c12` (configuration not stated) gave an RP-LC retention time of 878 s.

In turn, `O=C(N[C@@H]1CN(Cc2cc(F)c(F)cc2F)C[C@H]1CO)C1CCC1` gave an RP-LC retention time of 599 s.

Turning to `Cc1nc(Nc2ccccc2)sc1C(=O)Nc1cccc(F)c1`, the RP-LC retention time was determined as 998 s.

Compound `O=C1CCCc2c1cc(C(=O)NCc1ccccn1)c(=O)n2-c1ccc(F)cc1` had an RP-LC retention time of 630 s.

With `CN(C)C(CNC(=O)C1(c2cccs2)CCCC1)c1ccsc1` (configuration not stated), the RP-LC retention time was determined as 596 s.

Compound `COc1ccc(C2CC(=O)N(c3cccc(F)c3)C(=O)C2)cc1` displayed an RP-LC retention time of 896 s.

In turn, `CCc1ccc(CNC(=O)c2cc3n(n2)CC(C)(C(=O)NCc2ccccc2)N(C)C3=O)cc1` (configuration not stated) displayed an RP-LC retention time of 832 s.

Compound `O=C(Nc1cccc(C(F)(F)F)c1)C1CCc2nc(N3CCOCC3)ncc2C1` (configuration not stated) showed an RP-LC retention time of 900 s.

Compound `CCOc1ccc(S(=O)(=O)N2CCc3c(c(-c4nnc(-c5ccccc5)o4)nn3C)C2)cc1` returned an RP-LC retention time of 996 s.

`O=C(NCc1cccnc1)c1cccn1-c1nnc(N2CCOCC2)s1` registered an RP-LC retention time of 560 s.

In the case of `Cc1nn2c(N3CCN(c4ccccn4)CC3)cc(C(C)(C)C)nc2c1-c1ccc(F)cc1`, the RP-LC retention time amounted to 1090 s.

`CNC(=O)c1ccc(N2C(=S)N(c3cnc(C#N)c(C(F)(F)F)c3)C(=O)C23CCC3)cc1F` came in with an RP-LC retention time of 993 s.

`O=C(NCCN1CCCCC1)c1nc2ccccn2c1-c1ccsc1` displayed an RP-LC retention time of 527 s.

Take `Cc1cc2c(cc1NC(=O)C1CCC(C)CC1)n(C)c(=O)c(=O)n2C` (configuration not stated): the RP-LC retention time was determined as 733 s.

The compound `CC(C)NC(=O)c1ccc(OCC2CCN(C(=O)c3ccc(C#N)cc3)CC2)cc1` came in with an RP-LC retention time of 811 s.

Compound `O=C(C1CCN(c2nc3ccc(-c4ccccc4)nc3s2)CC1)N1CCOCC1` had an RP-LC retention time of 810 s.

`COc1ccc(C(=O)Nc2nc(-c3ccc4c(c3)N(C)C(=O)CO4)c(C)s2)cc1OC` yielded an RP-LC retention time of 906 s.

Turning to `CN(C(=O)c1cn(-c2ccc(-c3nc(C4CC4)no3)cn2)cn1)C1CCCCC1`, the RP-LC retention time came to 971 s.

Consider `CCCNC(=O)c1cc2n(n1)CC(C)(C(=O)NCc1ccc(F)cc1)N(C)C2=O` (configuration not stated), for which the RP-LC retention time stood at 688 s.

Compound `CC(=O)N1CCc2cc(N3CC(C(=O)N4CCN(c5ccccn5)CC4)CC3=O)ccc21` (configuration not stated) displayed an RP-LC retention time of 566 s.

Regarding `C=CCc1cccc(/C=N/NC(=O)C[NH+]2CCN(Cc3ccccc3)CC2)c1[O-]`, the RP-LC retention time stood at 783 s.

Regarding `Cc1ccc(-c2c(C(F)(F)F)nn3c(N4CCN(c5ccccn5)CC4)cc(C)nc23)cc1`, the RP-LC retention time amounted to 910 s.

Compound `O=C(Cn1nc2c(Oc3ccccc3)nccn2c1=O)NCCCc1ccccc1` had an RP-LC retention time of 871 s.

`Cn1c(SCC(=O)Nc2ncn[nH]2)nc2ccsc2c1=O` returned an RP-LC retention time of 583 s.

Consider `Cc1nn(C)c(C)c1S(=O)(=O)N1CCC(n2c(C)cnc2-c2ccncc2)C1` (configuration not stated), for which the RP-LC retention time was 588 s.

The compound `COC(=O)c1ccc(-c2nc3cnccn3c2Nc2ccc(C(C)C)cc2)cc1` yielded an RP-LC retention time of 1070 s.

For the compound `Cc1csc(-c2ccc(N3CCN(C(=O)c4ccc(F)cc4)CC3)nc2)n1`, the RP-LC retention time was 820 s.

Regarding `Cc1cc(C)n(-c2ccc(C(=O)NCc3ccc(C(C)C)cc3)cn2)n1`, the RP-LC retention time was determined as 1100 s.

`CCn1nnc2c(N3CCOCC3)nc(-c3ccc(NC(=O)Nc4ccc(C(=O)N5CCN(C)CC5)cc4)cc3)nc21` displayed an RP-LC retention time of 690 s.

Compound `Cc1ccc(NC(=O)NC2CCN(c3ccccc3)C2=O)cc1` (configuration not stated) yielded an RP-LC retention time of 821 s.

In turn, `COc1ccccc1-c1nnc(-c2ccc(-n3ccnc3)nc2)o1` returned an RP-LC retention time of 614 s.

In the case of `Cc1ccc(CNC(=O)C2CCN(c3ccc(SCc4ccccc4)nn3)CC2)cc1`, the RP-LC retention time is 821 s.

`CCC(C(=O)Nc1cc(-c2cn3nc(OC)ccc3n2)ccc1F)c1ccccc1` (configuration not stated) gave an RP-LC retention time of 916 s.

The compound `O=C(NC1CCCCC1)C1CCc2sc(C(=O)N3CCOCC3)cc2C1` (configuration not stated) displayed an RP-LC retention time of 741 s.

On to `Cc1ccc(CNC(=O)Nc2cnc3c(c2)CCC3)cc1`, for which the RP-LC retention time worked out at 534 s.

As for `Cc1ccccc1C(=O)Nc1nc(-c2ccc3c(c2)N(C)C(=O)CO3)c(C)s1`, the RP-LC retention time is 1050 s.

The compound `CC1CCN(C(=O)c2cc(S(=O)(=O)N3CCC(C(=O)N4CCC(C)CC4)CC3)cn2C)CC1` showed an RP-LC retention time of 883 s.

Turning to `O=C(CN1C(=O)COc2ccc(C(=O)N3CCN(c4ccccn4)CC3)cc21)N1CCCC1`, the RP-LC retention time worked out at 572 s.

For `Cc1ccc(-c2cc3c4nnc(SCC(=O)NC5CCCCC5)n4ccn3n2)cc1C`, the RP-LC retention time was 978 s.

Regarding `CCNC(=O)N1CC(Oc2cccc(-c3nc(C)no3)c2)C1`, the RP-LC retention time worked out at 705 s.

The compound `O=C(NCc1ccccc1Cl)C(=O)NCC1(CO)CC1` gave an RP-LC retention time of 670 s.

Take `COc1ccccc1NC(=O)C1CCN(c2cnc(N3CCCCCC3)nc2)CC1`: the RP-LC retention time was found to be 826 s.

As for `CCc1ccccc1NC(=O)Cn1ncc2c(N3CCN(c4ccccn4)CC3)ncnc21`, the RP-LC retention time turned out to be 608 s.

As to `COc1ccc2c(c1)C1(CCN(S(=O)(=O)c3ccc(C)cc3)C1)C(=O)N2` (configuration not stated), the RP-LC retention time was found to be 843 s.

For the compound `CCCCn1cc(S(=O)(=O)Nc2ccc(F)c(F)c2)c2cccnc21`, the RP-LC retention time stood at 966 s.

In turn, `c1ccc(CN2CCCC(c3n[nH]c(C4CC4)n3)C2)nc1` (configuration not stated) displayed an RP-LC retention time of 465 s.

`CC(C)CNC(=O)C1CCN(C(=O)Nc2ccc(NC(=O)NC3CCCC3)cc2)CC1` displayed an RP-LC retention time of 728 s.
